Measured values reported in patent US20090143285A1, “TARGET PROTEIN AND TARGET GENE FOR DRUG DISCOVERY AND SCREENING METHOD” (REVERSE PROTEOMICS RESEARCH INSTITUTE CO., LTD., priority 2005, published 2009).
Entries after “also recorded” stand apart in the source; their conditions may differ. Where two headings read alike, the source gives them in different places. Each block holds one compound with its values, some of them ahead of it.

Key:
[1] = molecular target: T1, FLJ38531-derived protein (Homo sapiens, UniProt Q9BVM4); assay: SEC/MS interaction analysis, FLJ38531-derived protein (hypothetical protein BC004360); type: binding; conditions: spin column method; doses of both compound and protein varied
T1 construct: His-tag (N); made in house; host or cells: Escherichia coli BL21star(DE3)pLysS
T1 sequence (Q9BVM4 1-153): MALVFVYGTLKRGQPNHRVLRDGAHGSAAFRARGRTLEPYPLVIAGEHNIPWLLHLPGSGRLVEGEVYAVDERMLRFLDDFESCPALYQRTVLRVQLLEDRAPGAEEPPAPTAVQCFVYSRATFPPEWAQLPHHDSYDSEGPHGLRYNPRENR
Source text: (§1) To analyze the interactions between commonly used drugs and proteins expressed from human full-length cDNA clones while keeping both the proteins and the compounds in non-modified, non-immobilized state, size exclusion chromatography (SEC) and mass analysis were used in combination. The specific procedures are shown below.
(§2) The compound-protein mixture prepared in step 1 was subjected to chromatography using an SEC column, the compound and the protein were separated by SEC, and the compound that interacted with the bound compound or protein contained in the protein fraction was analyzed using a mass analyzer.
(§3) Protein concentrations were measured using BCA Protein Assay (PIERCE), in consideration of the purity calculated by SDS-PAGE.
(§4) Mass analysis was performed using LCQ DECA XP (Thermoelectron) or Q-TOF micro (Micromass), equipped with an ESI probe. The LC pump used was Agilent 1100 (Yokogawa Analytical Systems), and the autosampler used was HTC-PAL (CTC Analytics) equipped with a cooling stacker. The SEC column used was a micro-LC column or a 384-well spin column. […]
(§5) In the 384-well spin column method, Unifilter 100 (Whatman), packed with 10 μL (dry volume) of Bio-Gel P6 (BIO-RAD) and swollen with milliQ water, was used as the SEC column. […] The SEC spin column was mounted on an acetonitrile-aliquoted 384-well U-bottom plate and centrifuged; the SEC spin column filtrate, which is a protein fraction, was recovered in 50% acetonitrile. The protein precipitate produced by the acetonitrile was removed via centrifugation and filtration for deproteinization; the resulting filtrate was concentrated by centrifugal concentration and re-dissolved in 10 μL of 50% methanol to obtain a mass analysis sample. The mobile phase supplied to the mass analyzer was 0.1% formic acid/50% methanol solution in the positive ion mode, and 0.1% ammonia/50% methanol solution in the negative ion mode; these mobile phases were used at a flow rate of 40 μL/min. 2-μL of mass analysis samples were injected using an autosampler at 2-minute intervals; the mass spectral intensity of the compound was measured to retrieve the spectral intensity of the pharmaceutical compound contained in the SEC spin column filtrate (protein fraction eluted from SEC).

[2] = system: FLJXXXXX-derived proteins; assay: SEC/MS spin column interaction analysis of FLJXXXXX-derived proteins and various compounds (Tables 30-1 to 30-4); type: binding, human
[3] = molecular target: T2, FLJ10420-derived protein (Homo sapiens, UniProt Q9NVZ3, T157A); assay: SEC/MS interaction analysis, FLJ10420-derived protein (hypothetical protein FLJ10420); type: binding
T2 construct: His-tag (N); made in house; host or cells: Escherichia coli BL21star(DE3)pLysS
T2 sequence (Q9NVZ3 1-263 T157A): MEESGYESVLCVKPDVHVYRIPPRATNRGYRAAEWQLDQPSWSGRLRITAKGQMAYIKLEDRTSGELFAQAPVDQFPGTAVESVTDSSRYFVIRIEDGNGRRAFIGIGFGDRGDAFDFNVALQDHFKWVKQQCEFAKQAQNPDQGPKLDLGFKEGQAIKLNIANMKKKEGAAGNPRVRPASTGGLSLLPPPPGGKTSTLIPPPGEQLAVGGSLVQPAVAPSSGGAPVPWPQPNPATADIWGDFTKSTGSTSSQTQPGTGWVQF
Source text: as §1, §2, §3, §4, §5

[4] = molecular target: T3, FLJ41991-derived protein (Homo sapiens, UniProt P57764, E293G); assay: SEC/MS interaction analysis, FLJ41991-derived protein (GSDMDC1); type: binding
T3 construct: His-tag (N); made in house; host or cells: Escherichia coli BL21star(DE3)pLysS (pDEST17)
T3 sequence (P57764 265-484 E293G): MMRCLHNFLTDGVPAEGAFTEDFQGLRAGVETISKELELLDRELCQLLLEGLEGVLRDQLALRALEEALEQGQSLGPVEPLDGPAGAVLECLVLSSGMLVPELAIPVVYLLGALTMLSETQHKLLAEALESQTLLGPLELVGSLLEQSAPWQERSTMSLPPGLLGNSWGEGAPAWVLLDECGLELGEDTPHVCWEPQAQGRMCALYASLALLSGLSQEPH
Source text: as §1, §2, §3, §4, §5

[5] = SEC spin column filtrate, spectral intensity increased with doses of compound and protein
[6] = compound 12.5 μM, protein 10 μM
[7] = compound 62.5 μM, protein 10 μM
[8] = spin column method, doses of both compound and protein varied

Compound: CCn1cc(C(=O)O)c(=O)c2ccc(C)nc21 [nalidixic acid]
interaction judged from spectrum intensity of the compound in the SEC spin column filtrate (protein fraction eluted from SEC) [1]: concentration-dependent interaction | FLJ No of the derived protein with which the compound was judged to exhibit a concentration-dependent interaction [2, 5]: FLJ38531

Compound: CC(=O)CCCCn1c(=O)c2c(ncn2C)n(C)c1=O [pentoxifylline]
FLJ No of the derived protein with which the compound was judged to exhibit a concentration-dependent interaction [2, 5]: FLJ35353

spectrum intensity of the compound in the SEC spin column filtrate ([3]; compound 12.5 μM, protein 0 μM): 412892 | spectrum intensity of the compound in the SEC spin column filtrate ([3]; compound 12.5 μM, protein 5 μM): 323916 | spectrum intensity of the compound in the SEC spin column filtrate [3, 6]: 294069 | spectrum intensity of the compound in the SEC spin column filtrate ([3]; compound 12.5 μM, protein 15 μM): 237571 | spectrum intensity of the compound in the SEC spin column filtrate ([3]; compound 25 μM, protein 0 μM): 441470 | spectrum intensity of the compound in the SEC spin column filtrate ([3]; compound 25 μM, protein 5 μM): 490309 | spectrum intensity of the compound in the SEC spin column filtrate ([3]; compound 25 μM, protein 10 μM): 647010 | spectrum intensity of the compound in the SEC spin column filtrate ([3]; compound 25 μM, protein 15 μM): 496587 | spectrum intensity of the compound in the SEC spin column filtrate ([3]; compound 62.5 μM, protein 0 μM): 841101 | spectrum intensity of the compound in the SEC spin column filtrate ([3]; compound 62.5 μM, protein 5 μM): 1376939 | spectrum intensity of the compound in the SEC spin column filtrate [3, 7]: 1450464 | spectrum intensity of the compound in the SEC spin column filtrate ([3]; compound 62.5 μM, protein 15 μM): 1862334 | interaction judged from spectrum intensity of the compound in the SEC spin column filtrate (protein fraction eluted from SEC) [3, 8]: concentration-dependent interaction
Compound: COc1ccc(C(=O)NCc2cccnc2)cc1C(=O)NCc1cccnc1 [picotamide]
FLJ No of the derived protein with which the compound was judged to exhibit a concentration-dependent interaction [2, 5]: FLJ10420

Compound: CC(N/C(=N\C#N)Nc1ccncc1)C(C)(C)C (centres unmarked) [pinacidil]
FLJ No of the derived protein with which the compound was judged to exhibit a concentration-dependent interaction [2, 5]: FLJ35353

Compound: CNCCCC1c2ccccc2C=Cc2ccccc21 [protriptyline.]
FLJ No of the derived protein with which the compound was judged to exhibit a concentration-dependent interaction [2, 5]: FLJ20972

spectrum intensity of the compound in the SEC spin column filtrate ([4]; compound 12.5 μM, protein 0 μM): 36421 | spectrum intensity of the compound in the SEC spin column filtrate ([4]; compound 12.5 μM, protein 5 μM): 77607 | spectrum intensity of the compound in the SEC spin column filtrate [4, 6]: 225680 | spectrum intensity of the compound in the SEC spin column filtrate ([4]; compound 12.5 μM, protein 25 μM): 439131 | spectrum intensity of the compound in the SEC spin column filtrate ([4]; compound 25 μM, protein 0 μM): 40978 | spectrum intensity of the compound in the SEC spin column filtrate ([4]; compound 25 μM, protein 5 μM): 125609 | spectrum intensity of the compound in the SEC spin column filtrate ([4]; compound 25 μM, protein 10 μM): 481486 | spectrum intensity of the compound in the SEC spin column filtrate ([4]; compound 25 μM, protein 25 μM): 457713 | spectrum intensity of the compound in the SEC spin column filtrate ([4]; compound 62.5 μM, protein 0 μM): 123977 | spectrum intensity of the compound in the SEC spin column filtrate ([4]; compound 62.5 μM, protein 5 μM): 598920 | spectrum intensity of the compound in the SEC spin column filtrate [4, 7]: 1080431 | spectrum intensity of the compound in the SEC spin column filtrate ([4]; compound 62.5 μM, protein 25 μM): 1854355 | interaction judged from spectrum intensity of the compound in the SEC spin column filtrate (protein fraction eluted from SEC) [4, 8]: concentration-dependent interaction
Compound: CCN(CC)CCCC(C)Nc1c2ccc(Cl)cc2nc2ccc(OC)cc12 (centres unmarked) [quinacrine]
FLJ No of the derived protein with which the compound was judged to exhibit a concentration-dependent interaction [2, 5]: FLJ37909; also recorded: FLJ41991

Compound: COC(=O)[C@H]1[C@H]2C[C@@H]3c4[nH]c5cc(OC)ccc5c4CCN3C[C@H]2C[C@@H](OC(=O)/C=C/c2cc(OC)c(OC)c(OC)c2)[C@@H]1OC [rescinnamine]
FLJ No of the derived protein with which the compound was judged to exhibit a concentration-dependent interaction [2, 5]: FLJ37909

Compound: COC(=O)[C@H]1[C@H]2C[C@@H]3c4[nH]c5cc(OC)ccc5c4CCN3C[C@H]2C[C@@H](OC(=O)c2cc(OC)c(OC)c(OC)c2)[C@@H]1OC [reserpine]
FLJ No of the derived protein with which the compound was judged to exhibit a concentration-dependent interaction [2, 5]: FLJ37909

Compound: COc1cccc(CCc2ccccc2OCC(CN(C)C)OC(=O)CCC(=O)O)c1 (centres unmarked) [sarpogrelate]
FLJ No of the derived protein with which the compound was judged to exhibit a concentration-dependent interaction [2, 5]: FLJ39553

Compound: C[C@@H]1CC[C@@]2(NC1)O[C@H]1C[C@H]3[C@@H]4CC=C5C[C@@H](O)CC[C@]5(C)[C@H]4CC[C@]3(C)[C@H]1[C@@H]2C [solasodine]
FLJ No of the derived protein with which the compound was judged to exhibit a concentration-dependent interaction [2, 5]: FLJ35353

Compound: COc1cc(NS(=O)(=O)c2ccc(N)cc2)nc(OC)n1 [sulfadimethoxine]
FLJ No of the derived protein with which the compound was judged to exhibit a concentration-dependent interaction [2, 5]: FLJ39553

Compound: CCOC(=O)Oc1c(OC)cc(C(=O)O[C@@H]2C[C@@H]3CN4CCc5c([nH]c6cc(OC)ccc56)[C@H]4C[C@@H]3[C@H](C(=O)OC)[C@H]2OC)cc1OC [syrosingopine]
FLJ No of the derived protein with which the compound was judged to exhibit a concentration-dependent interaction [2, 5]: FLJ35353

Compound: CC/C(=C(\c1ccccc1)c1ccc(OCCN(C)C)cc1)c1ccccc1 [tamoxifen]
FLJ No of the derived protein with which the compound was judged to exhibit a concentration-dependent interaction [2, 5]: FLJ37909

Compound: c1ccc2c(c1)CCCC2C1=NCCN1 (centres unmarked) [tetrazoline]
FLJ No of the derived protein with which the compound was judged to exhibit a concentration-dependent interaction [2, 5]: FLJ36526

Compound: CSc1ccc2c(c1)N(CCC1CCCCN1C)c1ccccc1S2 (centres unmarked) [thioridazine]
FLJ No of the derived protein with which the compound was judged to exhibit a concentration-dependent interaction [2, 5]: FLJ37909

Compound: CN1CCN(CC/C=C2/c3ccccc3Sc3ccc(S(=O)(=O)N(C)C)cc32)CC1 [thiothixene (cis), thiothixene]
FLJ No of the derived protein with which the compound was judged to exhibit a concentration-dependent interaction [2, 5]: FLJ37909 | FLJ No of the derived protein with which the compound was judged to exhibit a concentration-dependent interaction ([2]; SEC spin column filtrate, spectral intensity increased with doses of compound and protein, listed as Thiothixene (cis)): FLJ35353

Compound: C[C@H]1CC[C@]2(NC1)O[C@H]1C[C@H]3[C@@H]4CC[C@H]5C[C@@H](O)CC[C@]5(C)[C@H]4CC[C@]3(C)[C@H]1[C@@H]2C [tomatidine]
FLJ No of the derived protein with which the compound was judged to exhibit a concentration-dependent interaction [2, 5]: FLJ35353

Compound: CC(C)C[C@H]1C(=O)N2CCC[C@H]2[C@]2(O)O[C@](NC(=O)[C@@H]3C=C4c5cccc6[nH]cc(c56)C[C@H]4N(C)C3)(C(C)C)C(=O)N12 [α-ergocryptine]
FLJ No of the derived protein with which the compound was judged to exhibit a concentration-dependent interaction [2, 5]: FLJ35353

Compound: celestine blue
FLJ No of the derived protein with which the compound was judged to exhibit a concentration-dependent interaction [2, 5]: FLJ39553

Compound: cyclosporin A
FLJ No of the derived protein with which the compound was judged to exhibit a concentration-dependent interaction [2]: FLJ23466; also recorded: FLJ11211; also recorded: FLJ37909

Compound: eburnamonine
FLJ No of the derived protein with which the compound was judged to exhibit a concentration-dependent interaction [2, 5]: FLJ11211

Compound: spiramycin
FLJ No of the derived protein with which the compound was judged to exhibit a concentration-dependent interaction [2, 5]: FLJ21841
